Assay results as given in ChEMBL document CHEMBL5465560, “Selectivity Literature for EUbOPEN Chemogenomic Library” (2024).
pIC50: −log10 of the molar value.

Assays:
[1] = target: Ribosomal protein S6 kinase alpha-4 (Homo sapiens) (UniProt O75676); test: Selectivity interaction (KinomeScan (DiscoverX)) EUB0000311b RPS6KA4; settings: at 1 µM
Aurora kinase A = Aurora kinase A (Homo sapiens, UniProt O14965); test: Selectivity interaction (Radiometric kinase assay (using 10 uM ATP)) EUB0000601a STK6
[2] = target: Calcium/calmodulin-dependent protein kinase type 1D (Homo sapiens) (UniProt Q8IU85); test: Selectivity interaction (Kinase panel (KiNativ target engagement assay in Jurkat cells)) EUB0001635a CAMK1D; assay type: cell-based; settings: at 1 µM
[3] = target: MAP/microtubule affinity-regulating kinase 3 (Homo sapiens) (UniProt P27448); test: Selectivity interaction (ActivX KiNativ screen (kinase selectivity in THP-1 cell lysates)) EUB0000639a MARK3; assay type: subcellular; settings: lysate, at 5 µM
[4] = target: Serine/threonine-protein kinase 16 (Homo sapiens, UniProt O75716); test: Selectivity interaction (ActivX KiNativ screen (kinase selectivity in THP-1 cell lysates)) EUB0000639a STK16; assay type: subcellular; settings: lysate, at 0.01 µM
[5] = target: Serine/threonine-protein kinase Nek7 (Homo sapiens) (UniProt Q8TDX7); test: Selectivity interaction (ActivX KiNativ screen (kinase selectivity in THP-1 cell lysates)) EUB0000639a NEK7; assay type: subcellular; settings: lysate, at 5 µM
[6] = target: T1, Serine/threonine-protein kinase Nek9 (Homo sapiens) (UniProt Q8TD19); test: Selectivity interaction (KinomeScan (DiscoverX)) EUB0000595a NEK9; settings: at 10 µM
T1 sequence (whole entry): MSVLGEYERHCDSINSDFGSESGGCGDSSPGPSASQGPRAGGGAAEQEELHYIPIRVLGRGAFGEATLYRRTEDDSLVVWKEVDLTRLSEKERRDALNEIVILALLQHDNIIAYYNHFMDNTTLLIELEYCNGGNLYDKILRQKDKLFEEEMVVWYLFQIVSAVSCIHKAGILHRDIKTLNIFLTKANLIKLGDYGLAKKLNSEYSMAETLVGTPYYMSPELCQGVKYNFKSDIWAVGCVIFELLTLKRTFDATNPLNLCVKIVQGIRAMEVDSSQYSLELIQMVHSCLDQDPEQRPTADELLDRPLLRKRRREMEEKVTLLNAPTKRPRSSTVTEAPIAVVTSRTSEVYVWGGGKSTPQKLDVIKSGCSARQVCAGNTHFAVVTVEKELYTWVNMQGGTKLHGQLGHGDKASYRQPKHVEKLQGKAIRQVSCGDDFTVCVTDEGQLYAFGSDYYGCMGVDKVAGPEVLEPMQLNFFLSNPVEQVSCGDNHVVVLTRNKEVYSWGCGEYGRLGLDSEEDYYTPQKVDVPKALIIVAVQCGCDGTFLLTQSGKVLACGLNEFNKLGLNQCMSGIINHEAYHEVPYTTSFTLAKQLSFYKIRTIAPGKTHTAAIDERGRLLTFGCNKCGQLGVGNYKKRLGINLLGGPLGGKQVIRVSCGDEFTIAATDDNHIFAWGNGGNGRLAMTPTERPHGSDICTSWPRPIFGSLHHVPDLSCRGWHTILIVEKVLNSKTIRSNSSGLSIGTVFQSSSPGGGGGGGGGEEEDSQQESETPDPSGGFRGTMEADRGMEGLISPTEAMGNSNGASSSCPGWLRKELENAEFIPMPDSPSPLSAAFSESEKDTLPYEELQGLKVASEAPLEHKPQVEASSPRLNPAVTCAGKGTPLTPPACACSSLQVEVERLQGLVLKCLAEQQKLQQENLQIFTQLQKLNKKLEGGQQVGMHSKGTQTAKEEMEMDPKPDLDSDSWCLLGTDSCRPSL

[7] = target: NT-3 growth factor receptor (Homo sapiens, UniProt Q16288); test: Selectivity interaction (Ambit KINOMEscan and KiNATiv profiling in Jurkat cells) EUB0000090b NTRK3; assay type: cell-based; settings: at 1 µM
[8] = target: T2, Ephrin type-A receptor 8 (Homo sapiens) (UniProt P29322); test: Selectivity interaction (KinomeScan (DiscoverX)) EUB0000655a EPHA8; settings: at 10 µM
T2 sequence (whole entry): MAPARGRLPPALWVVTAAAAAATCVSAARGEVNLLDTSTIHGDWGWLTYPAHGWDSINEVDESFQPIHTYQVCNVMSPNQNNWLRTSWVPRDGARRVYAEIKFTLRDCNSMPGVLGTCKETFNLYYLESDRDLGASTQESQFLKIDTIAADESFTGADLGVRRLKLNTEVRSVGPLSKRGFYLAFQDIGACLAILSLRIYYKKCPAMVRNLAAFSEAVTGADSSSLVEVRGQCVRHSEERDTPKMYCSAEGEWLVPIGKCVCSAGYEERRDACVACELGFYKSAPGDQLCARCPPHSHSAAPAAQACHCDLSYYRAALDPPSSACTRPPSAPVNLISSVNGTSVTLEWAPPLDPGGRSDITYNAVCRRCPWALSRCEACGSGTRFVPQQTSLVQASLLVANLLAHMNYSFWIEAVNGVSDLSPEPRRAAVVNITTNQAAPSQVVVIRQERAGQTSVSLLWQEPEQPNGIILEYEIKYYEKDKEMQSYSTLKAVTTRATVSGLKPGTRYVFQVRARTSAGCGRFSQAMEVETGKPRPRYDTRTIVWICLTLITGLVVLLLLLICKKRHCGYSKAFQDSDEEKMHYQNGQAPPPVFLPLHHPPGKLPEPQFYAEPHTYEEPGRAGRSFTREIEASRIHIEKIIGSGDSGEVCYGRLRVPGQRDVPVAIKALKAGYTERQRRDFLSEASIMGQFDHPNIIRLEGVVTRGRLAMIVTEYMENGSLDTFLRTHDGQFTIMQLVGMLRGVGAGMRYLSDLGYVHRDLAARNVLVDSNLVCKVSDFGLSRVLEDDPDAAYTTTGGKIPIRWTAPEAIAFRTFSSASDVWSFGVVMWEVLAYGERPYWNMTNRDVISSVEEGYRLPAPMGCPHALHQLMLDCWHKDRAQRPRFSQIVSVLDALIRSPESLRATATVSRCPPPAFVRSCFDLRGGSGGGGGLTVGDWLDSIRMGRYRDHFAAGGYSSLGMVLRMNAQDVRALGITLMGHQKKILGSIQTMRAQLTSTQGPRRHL

Calcium/calmodulin-dependent protein kinase type 1D (Homo sapiens), sequence (Q8IU85 whole entry, looked up): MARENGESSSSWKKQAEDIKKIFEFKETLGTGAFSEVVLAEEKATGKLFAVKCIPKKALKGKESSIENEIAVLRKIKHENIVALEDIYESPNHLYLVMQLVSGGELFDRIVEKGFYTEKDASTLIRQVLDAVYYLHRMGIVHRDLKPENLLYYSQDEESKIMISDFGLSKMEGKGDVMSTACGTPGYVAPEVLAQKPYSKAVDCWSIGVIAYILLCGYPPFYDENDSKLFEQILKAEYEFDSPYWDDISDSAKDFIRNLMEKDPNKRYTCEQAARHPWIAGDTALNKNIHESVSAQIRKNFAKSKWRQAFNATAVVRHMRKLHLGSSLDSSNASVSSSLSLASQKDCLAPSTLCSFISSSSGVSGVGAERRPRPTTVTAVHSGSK
MAP/microtubule affinity-regulating kinase 3 (Homo sapiens), sequence (P27448 whole entry, looked up): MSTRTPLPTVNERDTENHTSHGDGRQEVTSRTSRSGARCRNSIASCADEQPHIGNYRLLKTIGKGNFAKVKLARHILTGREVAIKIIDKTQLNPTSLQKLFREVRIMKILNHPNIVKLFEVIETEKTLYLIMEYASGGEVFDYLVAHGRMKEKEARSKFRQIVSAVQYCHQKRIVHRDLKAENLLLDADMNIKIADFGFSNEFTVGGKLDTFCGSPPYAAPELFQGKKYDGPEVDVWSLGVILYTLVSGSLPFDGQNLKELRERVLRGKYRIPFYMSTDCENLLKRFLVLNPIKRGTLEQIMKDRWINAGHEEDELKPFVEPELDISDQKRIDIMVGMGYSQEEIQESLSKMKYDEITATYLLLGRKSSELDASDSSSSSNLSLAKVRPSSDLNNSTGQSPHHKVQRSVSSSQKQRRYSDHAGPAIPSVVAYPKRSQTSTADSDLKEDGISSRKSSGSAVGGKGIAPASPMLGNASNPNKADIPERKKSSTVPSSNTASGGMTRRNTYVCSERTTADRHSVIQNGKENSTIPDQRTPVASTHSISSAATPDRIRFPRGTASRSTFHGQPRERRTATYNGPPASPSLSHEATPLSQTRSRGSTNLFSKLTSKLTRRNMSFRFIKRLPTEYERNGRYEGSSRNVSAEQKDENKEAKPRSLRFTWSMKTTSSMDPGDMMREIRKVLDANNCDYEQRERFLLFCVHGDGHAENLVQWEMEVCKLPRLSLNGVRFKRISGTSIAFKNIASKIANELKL
Ribosomal protein S6 kinase alpha-4 (Homo sapiens), sequence (O75676 whole entry, looked up): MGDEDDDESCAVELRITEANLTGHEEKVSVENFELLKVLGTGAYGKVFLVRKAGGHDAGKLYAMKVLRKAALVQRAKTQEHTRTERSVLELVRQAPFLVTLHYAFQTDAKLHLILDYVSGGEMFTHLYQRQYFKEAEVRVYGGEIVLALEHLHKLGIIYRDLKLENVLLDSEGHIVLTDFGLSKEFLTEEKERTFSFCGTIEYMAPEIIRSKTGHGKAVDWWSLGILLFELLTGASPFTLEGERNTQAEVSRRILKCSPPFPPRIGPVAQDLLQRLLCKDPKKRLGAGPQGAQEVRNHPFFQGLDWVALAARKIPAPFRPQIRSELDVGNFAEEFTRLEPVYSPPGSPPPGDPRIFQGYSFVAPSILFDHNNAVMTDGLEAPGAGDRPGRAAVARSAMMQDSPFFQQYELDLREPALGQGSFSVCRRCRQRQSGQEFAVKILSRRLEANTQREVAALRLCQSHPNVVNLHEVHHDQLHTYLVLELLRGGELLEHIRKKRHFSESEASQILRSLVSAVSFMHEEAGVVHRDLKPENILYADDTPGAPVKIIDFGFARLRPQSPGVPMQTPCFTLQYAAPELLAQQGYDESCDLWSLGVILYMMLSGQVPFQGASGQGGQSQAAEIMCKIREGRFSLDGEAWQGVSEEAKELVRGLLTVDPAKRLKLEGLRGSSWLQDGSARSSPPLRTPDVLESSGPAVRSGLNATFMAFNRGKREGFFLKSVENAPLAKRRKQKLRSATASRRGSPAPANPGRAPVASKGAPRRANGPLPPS
Aurora kinase A, sequence (O14965 whole entry): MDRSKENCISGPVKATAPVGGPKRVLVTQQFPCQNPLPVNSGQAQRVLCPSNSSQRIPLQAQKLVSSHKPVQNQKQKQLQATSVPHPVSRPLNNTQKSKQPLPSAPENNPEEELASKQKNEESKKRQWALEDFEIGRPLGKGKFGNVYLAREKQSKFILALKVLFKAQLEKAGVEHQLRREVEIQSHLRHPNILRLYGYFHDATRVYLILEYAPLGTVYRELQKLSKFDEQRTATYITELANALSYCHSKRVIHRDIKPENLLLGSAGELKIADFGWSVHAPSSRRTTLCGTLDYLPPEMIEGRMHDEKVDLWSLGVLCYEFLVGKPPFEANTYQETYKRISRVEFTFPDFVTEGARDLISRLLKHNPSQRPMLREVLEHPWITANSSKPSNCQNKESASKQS
Serine/threonine-protein kinase Nek7 (Homo sapiens), sequence (Q8TDX7 whole entry, looked up): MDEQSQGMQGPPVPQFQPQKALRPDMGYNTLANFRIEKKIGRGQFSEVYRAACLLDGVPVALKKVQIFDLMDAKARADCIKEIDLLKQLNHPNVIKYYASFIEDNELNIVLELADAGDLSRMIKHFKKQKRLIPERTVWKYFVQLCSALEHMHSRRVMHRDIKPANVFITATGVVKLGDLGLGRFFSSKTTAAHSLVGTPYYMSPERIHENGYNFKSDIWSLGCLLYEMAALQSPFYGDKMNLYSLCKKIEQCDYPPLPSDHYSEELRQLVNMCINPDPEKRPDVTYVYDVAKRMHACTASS
NT-3 growth factor receptor, sequence (Q16288 32-839 limits assumed): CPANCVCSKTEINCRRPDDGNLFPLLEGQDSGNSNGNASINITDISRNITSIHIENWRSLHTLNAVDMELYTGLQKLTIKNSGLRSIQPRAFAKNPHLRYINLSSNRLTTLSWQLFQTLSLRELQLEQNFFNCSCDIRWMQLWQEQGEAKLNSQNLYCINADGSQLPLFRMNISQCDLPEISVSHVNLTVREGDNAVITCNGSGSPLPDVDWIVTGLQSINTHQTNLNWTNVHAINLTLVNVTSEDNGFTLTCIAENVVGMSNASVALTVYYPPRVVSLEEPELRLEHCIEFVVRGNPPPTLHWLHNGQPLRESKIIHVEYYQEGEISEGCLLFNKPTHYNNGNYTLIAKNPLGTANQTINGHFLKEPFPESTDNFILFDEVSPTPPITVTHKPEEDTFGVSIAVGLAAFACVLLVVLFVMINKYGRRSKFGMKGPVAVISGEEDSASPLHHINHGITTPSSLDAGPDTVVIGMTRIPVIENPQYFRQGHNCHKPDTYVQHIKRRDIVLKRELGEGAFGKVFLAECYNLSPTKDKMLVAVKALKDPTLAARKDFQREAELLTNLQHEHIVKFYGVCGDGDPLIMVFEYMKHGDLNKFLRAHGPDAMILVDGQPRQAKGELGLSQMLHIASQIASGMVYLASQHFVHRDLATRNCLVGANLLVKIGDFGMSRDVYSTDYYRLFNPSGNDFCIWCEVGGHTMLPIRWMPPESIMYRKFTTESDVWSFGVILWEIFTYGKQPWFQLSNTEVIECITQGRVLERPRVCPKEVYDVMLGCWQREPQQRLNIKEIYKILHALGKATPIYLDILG
Serine/threonine-protein kinase 16, sequence (O75716 whole entry): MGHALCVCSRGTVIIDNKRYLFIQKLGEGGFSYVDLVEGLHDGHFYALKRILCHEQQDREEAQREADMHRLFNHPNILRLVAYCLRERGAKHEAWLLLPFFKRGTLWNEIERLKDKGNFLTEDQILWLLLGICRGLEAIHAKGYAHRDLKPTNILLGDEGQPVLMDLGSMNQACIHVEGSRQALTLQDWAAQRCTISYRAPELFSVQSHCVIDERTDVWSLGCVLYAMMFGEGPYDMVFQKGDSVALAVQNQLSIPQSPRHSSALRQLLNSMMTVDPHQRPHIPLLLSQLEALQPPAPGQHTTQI

Q: For `CCc1ccccc1C(=O)Nc1n[nH]c2c(C)c(F)c(C3C(C#N)=C(C)N(C)C(C)=C3C#N)cc12` [BAY-3827], which % of control [1] is on record?
A: 8.9%

Q: How did the pIC50 (Aurora kinase A) turn out when `CCc1cc(Nc2nccc(-c3c(-c4ccc(OC)c(C(=O)Nc5c(F)cccc5F)c4)nc4ccccn34)n2)c(OC)cc1N1CCC(N2CCN(S(C)(=O)=O)CC2)CC1` was run?
A: < 5.82

Q: Which % of engagement ([2]; Selectivity number of off-targets 0.0, Selectivity number of targets 233.0, Source Knowledge https://www.sciencedirect.com/science/article/pii/S2451945619300674?via%3Dihub) does the source give for `C=CC(=O)Nc1ccc(C(=O)Nc2[nH]nc3c2CN(C(=O)N[C@H](CN(C)C)c2ccccc2)C3(C)C)cc1` here?
A: 18.9%

Q: What about the % of engagement [2] of the same molecule?
A: 8.9%

Q: With `CC[C@@H]1[C@H](F)C(=O)N[C@@H]1COc1nccc2cc(C(N)=O)c(OC)cc12` [ZIMLOVISERTIB] as the molecule, how does the % of inhibition [3] read?
A: 36.9%

Q: And the % of inhibition [4]?
A: 21.2%

Q: And the % of inhibition [5]?
A: -1.4%

Q: With `COCC(=O)NC/C=C/c1ccc2ncnc(Nc3ccc(Oc4ccc(C)nc4)c(C)c3)c2c1` [CP-724714] as the molecule, how does the % of control [6] read?
A: 82%

Q: Which % of control [7] does the source give for `CN(C)C/C=C/C(=O)Nc1ccc(C(=O)N2CCCC(Nc3ncc(Cl)c(-c4c[nH]c5ccccc45)n3)C2)cc1` (stereo not given) here?
A: 81%

Q: With `CN(C)CCOc1ccc(-c2nc(-c3ccncc3)c(-c3ccc4c(c3)CC/C4=N\O)[nH]2)cc1` as the molecule, how does the % of control [8] read?
A: 100%
